Consider one compound from patent publication US12286418B2, “Compounds and methods for treating or preventing bacterial infections” (priority 2019, dated 2025).

Holding throughout (assay type): biochemical
The target in one test is T1, OXA-58 (Acinetobacter baumannii, UniProt Q2TR58).
T1 construct: His-tag (N, cleaved yes); made in house; host or cells: E. coli BL21 (DE3), pET28a
The test can be described thus: Inhibition of other OXA enzymes (nitrocefin reporter): OXA-58. As to the method:
(§1) Compounds were tested for inhibition of a given OXA enzyme from hydrolyzing nitrocefin using a Tecan plate reader. […] A control with no compound was included in each run. For each compound concentration, the velocity of nitrocefin hydrolysis was determined at 482 nm and fit to the Morrison equation. […] The average Ki of separate experiments, each of which consisted of duplicate runs, is reported and error was quantified as the standard deviation.
(§2) The high sequence diversity of class D β-lactamases has made it difficult to find a class-wide inhibitor. The inhibition activity of CDD-97 was tested against other OXA-enzymes of varying sequence identity, to assess its spectrum of activity (Table 2). OXA-10 is regarded as the canonical OXA, however it is not a major clinical threat as it mainly hydrolyzes penicillins. OXA-58 is another carbapenemase unable to hydrolyze extended-spectrum cephalosporins like OXA-48. Both OXA-48 and OXA-58 are predominantly found in gram-negative bacteria, however OXA-48 is prevalent in the Enterobacteriaceae family (mainly Klebsiella pneumoniae), while OXA-58 is found in the Moraxellaceae family (mainly Acintobacter baumannii). While K. pneumoniae is more rampant in the clinics and most OXA-mediated carbapenem is due to OXA-48, A. baumannii nosocomial infections are a growing issue. OXA-163 is an OXA-48 like enzyme also prevalent in Enterobacteriaceae. […]

A further test addresses OXA-10 (Pseudomonas aeruginosa, UniProt P14489). The test can be described thus: Inhibition of other OXA enzymes (nitrocefin reporter): OXA-10. Here is the method:
as §1, §2

The target of the next test is OXA-48 (Klebsiella pneumoniae, UniProt Q6XEC0). The test can be described thus: OXA-48 inhibition assay using nitrocefin as reporter. The arrangement: His-tag (N, cleaved yes); made in house; host or cells: E. coli BL21(DE3), pET28a. As to the method:
Nitrocefin, a chromogenic β-lactam substrate, was used as a reporter in all inhibition assays with the various OXA enzymes and various compounds. Nitrocefin is not stable in aqueous solution long-term. For these assays, nitrocefin stocks were prepared in DMSO, stored at −20° C. and used within 2 weeks of dissolving. To avoid freeze-thawing, fresh stocks were always used. The Km of nitrocefin was determined prior to inhibition assays by performing steady state kinetics. Assays were performed using a DU800 spectrophotometer at room temperature in 50 mM HEPES pH 7.5, 15 mM NaHCO3, and 0.02% tween 20 buffer. Hydrolyzed nitrocefin was detected at 482 nm. For a single experiment, a series of at least 5 nitrocefin concentrations were tested against the given enzyme in duplicate and the initial velocities were measured and fit to the Michaelis-Menten equation. Experiments were repeated twice, and error reported is the standard error of the mean.
as §1
The activity of these derivatives was assessed using inhibition assays with purified OXA-48. Compounds were tested for the ability to inhibit OXA-48 from hydrolyzing nitrocefin, a chromogenic β-lactam substrate routinely used in β-lactamase inhibition assays. Nitrocefin contains a conjugated ring system that is readily hydrolyzed and produces a visible color shift from yellow to red upon hydrolysis (O'Callaghan, et al., 1972, Antimicrob. Agents Chemother. 1:283-288). The rate of nitrocefin hydrolysis in the presence of a constant amount of OXA-48 and increasing concentrations of a given compound of interest was monitored at 482 nm. These rates were plotted against compound concentration to determine the inhibition constant (Ki) against OXA-48. […] SPR was performed using 6×-His-OXA-48 enzyme that was amine-coupled on a Ni-NTA Chip. Meropenem, which covalently binds and inhibits OXA-48, was used as a positive control.

OXA-10, sequence (P14489 20-266): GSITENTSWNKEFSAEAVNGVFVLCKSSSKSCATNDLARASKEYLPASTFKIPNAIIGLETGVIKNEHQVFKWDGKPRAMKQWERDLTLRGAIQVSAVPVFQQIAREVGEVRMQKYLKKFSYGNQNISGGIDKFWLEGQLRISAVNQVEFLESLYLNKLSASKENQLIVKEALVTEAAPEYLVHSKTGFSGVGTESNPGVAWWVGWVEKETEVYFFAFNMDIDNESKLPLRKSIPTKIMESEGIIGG
T1 sequence (Q2TR58 19-280): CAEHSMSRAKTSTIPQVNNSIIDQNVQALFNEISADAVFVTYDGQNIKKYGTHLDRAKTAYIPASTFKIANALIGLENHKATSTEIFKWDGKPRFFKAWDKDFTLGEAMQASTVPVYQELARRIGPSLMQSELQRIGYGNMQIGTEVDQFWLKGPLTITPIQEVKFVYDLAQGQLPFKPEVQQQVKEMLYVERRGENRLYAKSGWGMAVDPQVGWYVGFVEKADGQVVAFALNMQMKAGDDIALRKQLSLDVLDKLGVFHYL
OXA-48, sequence (Q6XEC0 23-265, looked up): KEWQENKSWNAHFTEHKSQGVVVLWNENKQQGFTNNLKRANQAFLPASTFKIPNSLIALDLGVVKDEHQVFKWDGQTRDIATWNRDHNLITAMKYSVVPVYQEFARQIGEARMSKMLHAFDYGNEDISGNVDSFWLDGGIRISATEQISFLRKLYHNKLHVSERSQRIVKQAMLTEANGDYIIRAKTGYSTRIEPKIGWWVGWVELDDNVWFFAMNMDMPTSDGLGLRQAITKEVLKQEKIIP

What is called Ki is the dissociation constant of the complex between target and ligand, obtained from inhibition or displacement. Lower therefore signals a stronger hold on the target. `CCOc1ccccc1N1CCN(c2ncnc(N3CCC(C(=O)O)CC3)n2)CC1` [CDD-97, 1-(4-(4-(2-ethoxyphenyl)piperazin-1-yl)-1,3,5-triazin-2-yl)piperidine-4-carboxylic acid]: the Ki at OXA-58 was determined as 45 ± 0.8 µM; at OXA-10 it was 61 ± 27 µM; on OXA-48 (purified OXA-48, nitrocefin hydrolysis, Morrison fit), 0.53 ± 0.08 µM. For the same compound, the “Ki fold less potent than against OXA-48” value at OXA-58 (OXA-58 vs OXA-48) and on OXA-10 (OXA-10 vs OXA-48) was “about 100 fold” each time. Further, the “potency/activity against OXA-48 in words” value at OXA-48 (purified OXA-48, compared with CDD-97 where a derivative) is given as “sub-micromolar Ki”.
